Test results from US9586958B2, “Prodrug derivatives of substituted triazolopyridines” (BAYER PHARMA AKTIENGESELLSCHAFT, priority 2013, dated 2017).

Key:
[1] = In vitro stability in rat plasma (HPLC detection); format: in vitro ADME; details: 37° C.
Protocol: 1 mg of test compound is dissolved in 1.25 ml dimethylsulfoxide. Then 1.25 ml water are added. 0.5 ml of this sample solution are mixed with 0.5 ml heparinized and 37° C. warm plasma (wistar rat plasma or human plasma). A first sample (10 μl) is immediately taken for HPLC analysis. In the period up to 4 h after the start of incubation further 10 μl aliquots are taken after 30, 60, 90, 120 and 240 minutes and the amount of the test compound is determined.
Agilent 1100 with DAD (G1315A), binary pump (G1312A), autosampler (G1329A), column oven (G1316A), thermostat (G1330B); column: Kromasil 100 C18, 250 mm×4 mm, 5 μm; column temperature: 45° C.; eluent A: water+5 ml of perchloric acid/liter, eluent B: acetonitrile.

[2] = Stability in buffer at pH 7.4 (HPLC); format: physicochemical; details: buffer pH 7.4, 37° C.
Protocol: 0.3 mg of the test compound are solved in 0.1 ml dimethylsulfoxide and 0.4 ml acetonitrile. For complete dissolution the HPLC vial with the sample solution is sonified for about 20 seconds. Then 1.0 ml of the buffer solution is added, and the sample is again treated in the ultrasonic bath.
90 g of sodium chloride, 13.61 g of potassium dihydrogen phosphate and 83.35 g of 1 M sodium hydroxide solution are made up to 1 liter with Millipore water and then diluted 1:10.
10 μl portions of the sample solution are analysed by HPLC to determine the amount of the test compound over a period of 24 hours at 37° C. The peak areas in percentage are used for quantification.
Agilent 1100 with DAD (G1315B), binary pump (G1312A), autosampler (G1329A), column oven (G1316A), thermostat (G1330B); column: Kromasil 100 C18, 250 mm×4 mm, 5 μm; column temperature: 37° C.; eluent A: water+5 ml of perchloric acid/liter, eluent B: acetonitrile.
The ratio of the peak areas (F) at different time points in relation to the peak areas at the starting time are shown in Table 2 for representative examples: […]

Row | Structure (SMILES) | % Test Compound after 4 h [F(t = 24 h) × 100/F(t = 0 h)] [1] | % Test Compound after 24 h [F(t = 24 h) × 100/F(t = 0 h)] [2] | % Test Compound after 24 h [F(t = 24 h) × 100/F(t = 0 h)] ([2]; measured for formic acid salt)
1 | COc1cc(S(C)(=O)=O)ccc1N(C(=O)OC(C)OC(=O)[C@@H](NC(=O)[C@@H](N)CCCCN)C(C)C)c1nc2ccc(-c3ccc(NC(=O)[C@H](C)c4ccc(F)cc4)cc3)cn2n1.Cl.Cl (mixture of isomers) [Example 2.2, (1RS)-1-({[6-(4-{[(2R)-2-(4-fluorophenyl)propanoyl]amino}phenyl)[1,2,4]triazolo[1,5-α]pyridin-2-yl][2-methoxy-4-(methylsulfonyl)phenyl]carbamoyl}oxy)ethyl L-lysyl-L-valinate dihydrochloride] | 5% | 0.0% | 
2 | COc1cc(S(C)(=O)=O)ccc1N(C(=O)OC(C)OC(=O)[C@@H](NC(=O)[C@@H](N)C(C)C)C(C)C)c1nc2ccc(-c3ccc(NC(=O)[C@H](C)c4ccc(F)cc4)cc3)cn2n1.Cl (mixture of isomers) [Example 2.4, (1RS)-1-({[6-(4-{[(2R)-2-(4-fluorophenyl)propanoyl]amino}phenyl)[1,2,4]triazolo[1,5-α]pyridin-2-yl][2-methoxy-4-(methylsulfonyl)phenyl]carbamoyl}oxy)ethyl L-valyl-L-valinate hydrochloride] | 45% | 48% | 
3 | COc1cc(S(C)(=O)=O)ccc1N(C(=O)OC(C)OC(=O)[C@@H](N)C(C)C)c1nc2ccc(-c3ccc(NC(=O)[C@H](C)c4ccc(F)cc4)cc3)cn2n1.Cl (mixture of isomers) [Example 3.1, (1RS)-1-({[6-(4-{[(2R)-2-(4-fluorophenyl)propanoyl]amino}phenyl)[1,2,4]triazolo[1,5-α]pyridin-2-yl][2-methoxy-4-(methylsulfonyl)phenyl]carbamoyl}oxy)ethyl L-valinate hydrochloride] | 0.0% | 0.0% | 
4 | COc1cc(S(C)(=O)=O)ccc1N(C(=O)OC(C)OC(=O)[C@@H](N)C(C)(C)C)c1nc2ccc(-c3ccc(NC(=O)[C@H](C)c4ccc(F)cc4)cc3)cn2n1.Cl (mixture of isomers) [Example 3.2, (1RS)-1-({[6-(4-{[(2R)-2-(4-fluorophenyl)propanoyl]amino}phenyl)[1,2,4]triazolo[1,5-α]pyridin-2-yl][2-methoxy-4-(methylsulfonyl)phenyl]carbamoyl}oxy)ethyl 3-methyl-L-valinate hydrochloride] | 0.0% | 0.0% | 
5 | CC[C@H](C)[C@H](N)C(=O)OC(C)OC(=O)N(c1nc2ccc(-c3ccc(NC(=O)[C@H](C)c4ccc(F)cc4)cc3)cn2n1)c1ccc(S(C)(=O)=O)cc1OC.Cl (mixture of isomers) [Example 3.5, (1RS)-1-({[6-(4-{[(2R)-2-(4-fluorophenyl)propanoyl]amino}phenyl)[1,2,4]triazolo[1,5-α]pyridin-2-yl][2-methoxy-4-(methylsulfonyl)phenyl]carbamoyl}oxy)ethyl-L-isoleucinate hydrochloride] | 19% |  | 
6 | COc1cc(S(C)(=O)=O)ccc1N(C(=O)OC(OC(=O)C(C)(C)N)C(C)C)c1nc2ccc(-c3ccc(NC(=O)[C@H](C)c4ccc(F)cc4)cc3)cn2n1.Cl (mixture of isomers) [Example 5.5, (1RS)-1-({[6-(4-{[(2R)-2-(4-fluorophenyl)propanoyl]amino}phenyl)[1,2,4]triazolo[1,5-α]pyridin-2-yl][2-methoxy-4-(methylsulfonyl)phenyl]carbamoyl}oxy)-2-methylpropyl-2-methylalaninate hydrochloride] | 33% |  | 
7 | CC[C@H](C)[C@H](N)C(=O)OC(C)OC(=O)N(c1nc2n(n1)CC(c1ccc(NC(=O)[C@H](C)c3ccc(F)cc3)cc1)C=C2)c1ccc(S(C)(=O)=O)cc1OC.Cl (single isomer, unassigned) [Example 3.6, (1S or 1R)-1-({[6-(4-{[(2R)-2-(4-fluorophenyl)propanoyl]amino}phenyl)[1,2,4]triazolo[1,5-α]pyridin-2-yl][2-methoxy-4-(methylsulfonyl)phenyl]carbamoyl}oxy)ethyl-isoleucinate hydrochloride] |  | 0.0% | 
8 | CC[C@H](C)[C@H](N)C(=O)OC(C)OC(=O)N(c1nc2ccc(-c3ccc(NC(=O)[C@H](C)c4ccc(F)cc4)cc3)cn2n1)c1ccc(S(C)(=O)=O)cc1OC.Cl (single isomer, unassigned) [Example 3.7, (1R or 1S)-1-({[6-(4-{[(2R)-2-(4-fluorophenyl)propanoyl]amino}phenyl)[1,2,4]triazolo[1,5-α]pyridin-2-yl][2-methoxy-4-(methylsulfonyl)phenyl]carbamoyl}oxy)ethyl-L-isoleucinate hydrochloride] |  | 0.0% | 
9 | COc1cc(S(C)(=O)=O)ccc1N(C(=O)OCOC(=O)C1CCNCC1)c1nc2ccc(-c3ccc(NC(=O)[C@H](C)c4ccc(F)cc4)cc3)cn2n1.O=C(O)C(F)(F)F [Example 1.1, ({[6-(4-{[(2R)-2-(4-fluorophenyl)propanoyl]amino}phenyl)[1,2,4]triazolo[1,5-α]pyridin-2-yl][2-methoxy-4-(methylsulfonyl)phenyl]carbamoyl}oxy)methyl piperidine-4-carboxylate trifluoroacetate] |  |  | 35.0 *) %
10 | COc1cc(S(C)(=O)=O)ccc1N(C(=O)OCOC(=O)[C@@H](N)CC(C)C)c1nc2ccc(-c3ccc(NC(=O)[C@H](C)c4ccc(F)cc4)cc3)cn2n1.Cl [Example 1.3, ({[6-(4-{[(2R)-2-(4-fluorophenyl)propanoyl]amino}phenyl)[1,2,4]triazolo[1,5-α]pyridin-2-yl][2-methoxy-4-(methylsulfonyl)phenyl]carbamoyl}oxy)methyl L-leucinate hydrochloride] | 0.0% |  | 
11 | COc1cc(S(C)(=O)=O)ccc1N(C(=O)OCOP(=O)(O)O)c1nc2ccc(-c3ccc(NC(=O)[C@H](C)c4ccc(F)cc4)cc3)cn2n1 [Example 1.6, (phosphonooxy)methyl [6-(4-{[(2R)-2-(4-fluorophenyl)propanoyl]amino}phenyl)[1,2,4]triazolo[1,5-α]pyridin-2-yl][2-methoxy-4-(methylsulfonyl)phenyl]carbamate] | 0.0% |  | 
12 | CC(C)[C@H](N)C(=O)OCOC(=O)N(c1nc2ccc(-c3ccc(NC(=O)[C@H](C)c4ccc(F)cc4)cc3)cn2n1)c1ccc(S(C)(=O)=O)cc1OCC(F)(F)F.Cl [Example 6.2, ({[6-(4-{[(2R)-2-(4-fluorophenyl)propanoyl]amino}phenyl)[1,2,4]triazolo[1,5-α]pyridin-2-yl][4-(methylsulfonyl)-2-(2,2,2-trifluoroethoxy)phenyl]carbamoyl}oxy)methyl L-valinate hydrochloride] | 6% |  | 
13 | CNCC(=O)N(c1nc2ccc(-c3ccc(NC(=O)[C@H](C)c4ccc(F)cc4)cc3)cn2n1)c1ccc(S(C)(=O)=O)cc1OC.O=C(O)C(F)(F)F [Example 8.1, (2R)-2-(4-fluorophenyl)-N-[4-(2-{[2-methoxy-4-(methylsulfonyl)phenyl](N-methylglycyl)amino}[1,2,4]triazolo[1,5-α]pyridin-6-yl)phenyl]propanamide trifluoroacetate] | 57% |  | 
